We go through 24 compounds from patent publication US11708348B2, “Protease inhibitors for treatment of coronavirus infections” (The Scripps Research Institute, priority 2021, dated 2023).

For this test, the system named is SARS-CoV-2 strain USA-WA1/2020. In words: microbe, parasite or virus in culture. Format: cell-based. As to conditions: Severe acute respiratory syndrome coronavirus 2, HeLa-ACE2, 24 h, HeLa-ACE2 cells, SARS-CoV-2 infection, 24 h; read-out: EC50, uM (Hela).
In the case of `CC(C)CC(=O)N1CC2(CC2)C[C@H]1C(=O)N[C@@H](C[C@@H]1CCNC1=O)C(=O)COC(F)(F)F` [Compound 707, (S)-5-(3-methylbutanoyl)-N-((S)-3-oxo-1-((S)-2-oxopyrrolidin-3-yl)-4-(trifluoromethoxy)butan-2-yl)-5-azaspiro[2.4]heptane-6-carboxamide], the EC50 was 0.05 to 0.2 µM.

Consider `CCCCCC(=O)N1CC2(CC2)C[C@H]1C(=O)N[C@@H](C[C@@H]1CCNC1=O)C(=O)COC(F)(F)F` [Compound 708, (S)-5-hexanoyl-N-((S)-3-oxo-1-((S)-2-oxopyrrolidin-3-yl)-4-(trifluoromethoxy)butan-2-yl)-5-azaspiro[2.4]heptane-6-carboxamide], for which the EC50 was 0.05 to 0.2 µM.

As for `CC(=O)N[C@@H](CC(C)C)C(=O)N[C@@H](C[C@@H]1CCNC1=O)C(=O)COC(F)(F)F` [Compound 709, (S)-2-acetamido-4-methyl-N-((S)-3-oxo-l-((S)-2-oxopyrrolidin-3-yl)-4-(trifluoromethoxy)butan-2-yl)pentanamide], the 50% effective concentration (EC50) was in the range of 0.2 to 0.5 µM.

For `O=C1NCC[C@H]1C[C@H](NC(=O)[C@@H]1CC2(CC2)CN1C(=O)c1ccc(F)cc1F)C(=O)COC(F)(F)F` [Compound 710, (S)-5-(2,4-difluorobenzoyl)-N-((S)-3-oxo-l-((S)-2-oxopyrrolidin-3-yl)-4-(trifluoromethoxy)butan-2-yl)-5-azaspiro[2.4]heptane-6-carboxamide], the concentration giving a half-maximal response (EC50) lay in the range of 0.2 to 0.5 µM.

Turning to `CC1(CC(=O)N2CC3(CC3)C[C@H]2C(=O)N[C@@H](C[C@@H]2CCNC2=O)C(=O)COC(F)(F)F)CCCC1` [Compound 711, (S)-5-(2-(l-methylcyclopentyl)acetyl)-N-((S)-3-oxo-1-((S)-2-oxopyrrolidin-3-yl)-4-(trifluoromethoxy)butan-2-yl)-5-azaspiro[2.4]heptane-6-carboxamide], the EC50 is < 0.05 µM.

On to `CC(C)C(F)(F)CC(=O)N1CC2(CC2)C[C@H]1C(=O)N[C@@H](C[C@@H]1CCNC1=O)C(=O)COC(F)(F)F` [Compound 712, (S)-5-(3,3-difluoro-4-methylpentanoyl)-N-((S)-3-oxo-1-((S)-2-oxopyrrolidin-3-yl)-4-(trifluoromethoxy)butan-2-yl)-5-azaspiro[2.4]heptane-6-carboxamide], for which the half-maximal effective concentration (EC50) is < 0.05 µM.

As for `CC(F)(F)C(F)(F)CC(=O)N1CC2(CC2)C[C@H]1C(=O)N[C@@H](C[C@@H]1CCNC1=O)C(=O)COC(F)(F)F` [Compound 713, (S)-N-((S)-3-oxo-1-((S)-2-oxopyrrolidin-3-yl)-4-(trifluoromethoxy)butan-2-yl)-5-(3,3,4,4-tetrafluoropentanoyl)-5-azaspiro[2.4]heptane-6-carboxamide], the EC50 was 0.05 to 0.2 µM.

As to `CC(C)C(F)(F)C(=O)N1CC2(CC2)C[C@H]1C(=O)N[C@@H](C[C@@H]1CCNC1=O)C(=O)COC(F)(F)F` [Compound 714, (S)-5-(2,2-difluoro-3-methylbutanoyl)-N-((S)-3-oxo-1-((S)-2-oxopyrrolidin-3-yl)-4-(trifluoromethoxy)butan-2-yl)-5-azaspiro[2.4]heptane-6-carboxamide], the half-maximal effective concentration (EC50) is < 0.05 µM.

Turning to `CC1(C)[C@@H]2[C@@H](C(=O)N[C@H](C[C@@H]3CCNC3=O)C(=O)COC(F)(F)F)N(C(=O)[C@H](O)c3ccccc3)C[C@@H]21` [Compound 715, (1R,2S,5S)-3-((R)-2-hydroxy-2-phenylacetyl)-6,6-dimethyl-N-((R)-3-oxo-1-((S)-2-oxopyrrolidin-3-yl)-4-(trifluoromethoxy)butan-2-yl)-3-azabicyclo[3.1.0]hexane-2-carboxamide], the EC50 was in the range of 0.05 to 0.2 µM.

`CC[C@@H](OC(F)(F)F)C(=O)N1CC2(CC2)C[C@H]1C(=O)N[C@@H](C[C@@H]1CCNC1=O)C(=O)COC(F)(F)F` [Compound 716, (S)-N-((S)-3-oxo-1-((S)-2-oxopyrrolidin-3-yl)-4-(trifluoromethoxy)butan-2-yl)-5-((R)-2-(trifluoromethoxy)butanoyl)-5-azaspiro[2.4]heptane-6-carboxamide]: the EC50 was in the range of 0.05 to 0.2 µM.

On to `CC(C)(O)CC(=O)N1CC2(CC2)C[C@H]1C(=O)N[C@@H](C[C@@H]1CCNC1=O)C(=O)COC(F)(F)F` [Compound 717, (S)-5-(3-hydroxy-3-methylbutanoyl)-N-((S)-3-oxo-1-((S)-2-oxopyrrolidin-3-yl)-4-(trifluoromethoxy)butan-2-yl)-5-azaspiro[2.4]heptane-6-carboxamide], for which the EC50 fell in the range of 0.05 to 0.2 µM.

Turning to `O=C1NCC[C@H]1C[C@H](NC(=O)[C@@H]1CC2(CC2)CN1C(=O)[C@@H]1C[C@H]1C(F)(F)F)C(=O)COC(F)(F)F` [Compound 718, (S)-N-((S)-3-oxo-1-((S)-2-oxopyrrolidin-3-yl)-4-(trifluoromethoxy)butan-2-yl)-5-((1R,2R)-2-(trifluoromethyl)cyclopropane-1-carbonyl)-5-azaspiro[2.4]heptane-6-carboxamide], the EC50 is < 0.05 µM.

`CC(C)C[C@H](O)C(=O)N[C@@H](C[C@@H]1CCNC1=O)C(=O)COC(F)(F)F` [Compound 719, (S)-2-hydroxy-4-methyl-N-((S)-3-oxo-1-((S)-2-oxopyrrolidin-3-yl)-4-(trifluoromethoxy)butan-2-yl)pentanamide]: the EC50 is 0.5 to 1 µM.

With `O=C1NCC[C@H]1C[C@H](NC(=O)[C@@H]1CC2(CC2)CN1C(=O)C1CCC(F)(F)C1)C(=O)COC(F)(F)F` (stereo partly drawn) [Compound 720, (6S)-5-(3,3-difluorocyclopentane-1-carbonyl)-N-((S)-3-oxo-1-((S)-2-oxopyrrolidin-3-yl)-4-(trifluoromethoxy)butan-2-yl)-5-azaspiro[2.4]heptane-6-carboxamide], the EC50 was < 0.05 µM.

Turning to `O=C1NCC[C@H]1C[C@H](NC(=O)[C@@H]1CC2(CC2)CN1C(=O)C1CC(F)(F)C1)C(=O)COC(F)(F)F` [Compound 721, (S)-5-(3,3-difluorocyclobutane-1-carbonyl)-N-((S)-3-oxo-1-((S)-2-oxopyrrolidin-3-yl)-4-(trifluoromethoxy)butan-2-yl)-5-azaspiro[2.4]heptane-6-carboxamide], the EC50 lay within 0.05 to 0.2 µM.

On to `C[C@@](O)(C(=O)N1CC2(CC2)C[C@H]1C(=O)N[C@@H](C[C@@H]1CCNC1=O)C(=O)COC(F)(F)F)C(F)(F)F` [Compound 722, (S)-N-((S)-3-oxo-1-((S)-2-oxopyrrolidin-3-yl)-4-(trifluoromethoxy)butan-2-yl)-5-((R)-3,3,3-trifluoro-2-hydroxy-2-methylpropanoyl)-5-azaspiro[2.4]heptane-6-carboxamide], for which the 50% effective concentration (EC50) was in the range of 0.05 to 0.2 µM.

`O=C1NCC[C@H]1C[C@H](NC(=O)[C@@H]1CC2(CC2)CN1C(=O)C1CCCC1)C(=O)COC(F)(F)F` [Compound 723, (S)-5-(cyclopentanecarbonyl)-N-((S)-3-oxo-1-((S)-2-oxopyrrolidin-3-yl)-4-(trifluoromethoxy)butan-2-yl)-5-azaspiro[2.4]heptane-6-carboxamide]: the concentration for a half-maximal effect (EC50) was 0.05 to 0.2 µM.

On to `CC(=O)N1C[C@H](C(F)(F)F)C[C@H]1C(=O)N[C@@H](C[C@@H]1CCNC1=O)C(=O)COC(F)(F)F` [Compound 724, (2S,4R)-1-acetyl-N-((S)-3-oxo-1-((S)-2-oxopyrrolidin-3-yl)-4-(trifluoromethoxy)butan-2-yl)-4-(trifluoromethyl)pyrrolidine-2-carboxamide], for which the 50% effective concentration (EC50) is 0.05 to 0.2 µM.

For `CC(C)[C@H](O)[C@@H](O)C(=O)N1CC2(CC2)C[C@H]1C(=O)N[C@@H](C[C@@H]1CCNC1=O)C(=O)COC(F)(F)F` [Compound 726, (S)-5-((2R,3S)-2,3-dihydroxy-4-methylpentanoyl)-N-((S)-3-oxo-1-((S)-2-oxopyrrolidin-3-yl)-4-(trifluoromethoxy)butan-2-yl)-5-azaspiro[2.4]heptane-6-carboxamide], the EC50 was in the range of 0.2 to 0.5 µM.

`[2H]C([2H])([2H])C([2H])([2H])C([2H])([2H])C([2H])([2H])C(=O)N1CC2(CC2)C[C@H]1C(=O)N[C@@H](C[C@@H]1CCNC1=O)C(=O)COC(F)(F)F` [Compound 732, (S)-N-((S)-3-oxo-1-((S)-2-oxopyrrolidin-3-yl)-4-(trifluoromethoxy)butan-2-yl)-5-(pentanoyl-d9)-5-azaspiro[2.4]heptane-6-carboxamide]: the EC50 is < 0.05 µM.

In the case of `[2H]C([2H])([2H])C([2H])([2H])C([2H])([2H])C([2H])([2H])C([2H])([2H])C(=O)N1CC2(CC2)C[C@H]1C(=O)N[C@@H](C[C@@H]1CCNC1=O)C(=O)COC(F)(F)F` [Compound 733, (S)-5-(hexanoyl-d 11)-N-((S)-3-oxo-1-((S)-2-oxopyrrolidin-3-yl)-4-(trifluoromethoxy)butan-2-yl)-5-azaspiro[2.4]heptane-6-carboxamide], the EC50 is < 0.05 µM.

As for `[2H]C([2H])([2H])C([2H])(C([2H])([2H])[2H])C([2H])([2H])C([2H])([2H])C(=O)N1CC2(CC2)C[C@H]1C(=O)N[C@@H](C[C@@H]1CCNC1=O)C(=O)COC(F)(F)F` [Compound 734, (S)-5-(4-(methyl-d3)pentanoyl-2,2,3,3,4,5,5,5-d8)-N-((S)-3-oxo-1-((S)-2-oxopyrrolidin-3-yl)-4-(trifluoromethoxy)butan-2-yl)-5-azaspiro[2.4]heptane-6-carboxamide], the EC50 was < 0.05 µM.

`CC(C)(F)C(=O)N1CC2(CC2)C[C@H]1C(=O)N[C@@H](C[C@@H]1CCNC1=O)C(=O)COC(F)(F)F` [Compound 735, (S)-5-(2-fluoro-2-methylpropanoyl)-N-((S)-3-oxo-1-((S)-2-oxopyrrolidin-3-yl)-4-(trifluoromethoxy)butan-2-yl)-5-azaspiro[2.4]heptane-6-carboxamide]: the EC50 was < 0.05 µM.

Consider `[2H]C([2H])([2H])C([2H])([2H])C([2H])([2H])C(=O)N1CC2(CC2)C[C@H]1C(=O)N[C@@H](C[C@@H]1CCNC1=O)C(=O)COC(F)(F)F` [Compound 736, (S)-5-(butanoyl-d7)-N-((S)-3-oxo-1-((S)-2-oxopyrrolidin-3-yl)-4-(trifluoromethoxy)butan-2-yl)-5-azaspiro[2.4]heptane-6-carboxamide], for which the EC50 is < 0.05 µM.
